The source of these data is ChEMBL document CHEMBL1201862, “PubChem BioAssay data set” (2004).

Holding throughout (assay): inhibition of tumour cell growth, NCI panel, 48 h
The test system of assay [1] is A498.
Assay [2] deals with SF-539.
For assay [3], the system named is HT-29.
Assay [4] has as its system M14.
The subject of assay [5] is OVCAR-5.
For assay [6], the system named is HOP-62.
Assay [7] deals with NCI-H23.
Assay [8] relates to KM12.
Assay [9] concerns OVCAR-4.
In assay [10] the test system is OVCAR-3.
Assay [11] deals with SK-MEL-2.
Assay [12] deals with COLO 205.
Assay [13] deals with SW-620.
The test system of assay [14] is HCC 2998.
Assay [15] relates to MDA-MB-435.
Assay [16] concerns MCF7.
For assay [17], the system named is DU-145.
Assay [18] has as its system NCI/ADR-RES.
For assay [19], the system named is T47D.

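Where inhibition never reached the appropriate level, the endpoint shown equals the highest concentration tested. Otherwise, values were interpolated linearly from a five-concentration, 48-hour dose response in 96-well plates. Abbreviation: GI50, concentration required for 50% inhibition of growth.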 Calls of active or inactive are those of the source. No stated cut-off is given here; in the data, active = GI50 up to about 1.1 µM and inactive = higher. Where only a bound is given, the exact number is not on record here.

On to `O=C(O)CCC1CCc2cccc3occ1c23` (configuration not stated), for which the GI50 in [1], in [2], in assay [3], in assay [4], in [5] and in assay [6] was > 100 µM (inactive) throughout. Moreover, the GI50 in assay [7], in assay [8], in assay [9], in assay [10], in [11] and in [12] was > 100 µM (inactive) each time. For the same compound, the GI50 in [13] and in assay [14] was > 100 µM (inactive) throughout.

Take `CCCC(=O)OC[n+]1ccc2c(C)c3[nH]c4ccccc4c3c(C)c2c1`: the GI50 in [1] was 1.34 µM (inactive); in assay [2], 0.519 µM (active); in assay [3] it was > 100 µM (inactive); in [4], 1.12 µM (inactive); in assay [5], 1.04 µM (active); in [6], 0.914 µM (active). Moreover, the GI50 was 0.064 µM (active) in assay [7]; 0.377 µM (active) in assay [8]; 0.706 µM (active) in assay [9]; 1.2 µM (inactive) in [10]; 1.51 µM (inactive) in assay [11]; 0.705 µM (active) in [12]. Also, the GI50 in assay [13] is 0.215 µM (active); in assay [14], 0.611 µM (active).

With `CCOC(=O)CC1=N/C(=N/c2cc(Cl)ccc2Cl)SC1`, the GI50 in assay [1] was > 100 µM (inactive); in assay [2], > 100 µM (inactive); in [3], 54.1 µM (inactive); in [4], > 100 µM (inactive); in assay [5], > 100 µM (inactive); in assay [6] it was > 100 µM (inactive). Also, the GI50 is > 100 µM (inactive) in [7]; > 100 µM (inactive) in assay [8]; > 100 µM (inactive) in assay [9]; 62.4 µM (inactive) in assay [10]; > 100 µM (inactive) in assay [11]; > 100 µM (inactive) in [12]. Besides, the GI50 in assay [13] and in [14] was > 100 µM (inactive) in each case.

On to `COc1ccc(C2=Nc3ccccc3NC(=O)C2)cc1`, for which the GI50 in assay [1] was 45.2 µM (inactive); in assay [2], 29.4 µM (inactive); in assay [3] it was > 100 µM (inactive); in [4], > 100 µM (inactive); in assay [5], > 100 µM (inactive); in [6] it was 22.5 µM (inactive). Further, the GI50 is 26.9 µM (inactive) in assay [7]; > 100 µM (inactive) in assay [8]; > 100 µM (inactive) in assay [9]; 64 µM (inactive) in assay [10]; 51.5 µM (inactive) in [11]; 38.3 µM (inactive) in [12]. The results for the GI50 in [13] and in assay [14] were 16.7 µM (inactive) and > 100 µM (inactive), respectively.

As to `Nc1c(-c2nc3ccccc3s2)[n+]([O-])c2ccccc2[n+]1[O-]`, the GI50 in assay [1] is 33.2 µM (inactive); in assay [2] it was 29.9 µM (inactive); in assay [3], 37 µM (inactive); in assay [4] it was 29.6 µM (inactive); in assay [5], > 100 µM (inactive); in assay [6] it was 22.5 µM (inactive). Also, the GI50 is 20 µM (inactive) in assay [7]; 33.2 µM (inactive) in assay [8]; 42.1 µM (inactive) in assay [9]; 23.3 µM (inactive) in assay [10]; 29.1 µM (inactive) in assay [11]; 37.1 µM (inactive) in assay [12]. For the same compound, the GI50 in [13] was 43.5 µM (inactive); in assay [14], 38.1 µM (inactive).

With `c1ccc(C(NCC2CCO2)(c2ccccc2)c2ccccc2)cc1` (configuration not stated), the GI50 in [1] was 19.2 µM (inactive); in assay [2], 17.8 µM (inactive); in assay [4] it was 17.1 µM (inactive); in assay [5], 15.7 µM (inactive); in assay [15], 21.1 µM (inactive); in assay [16] it was 16.8 µM (inactive). Moreover, the GI50 in assay [7] is 16.3 µM (inactive); in assay [8], 15 µM (inactive); in assay [17], 27.7 µM (inactive); in assay [9], 16.2 µM (inactive); in [10], 18.5 µM (inactive); in assay [18], 14.1 µM (inactive). Further, the GI50 in [11] is 21.1 µM (inactive); in assay [12], 39.1 µM (inactive); in assay [13] it was 19.3 µM (inactive); in [14] it was 16.9 µM (inactive).

As for `O=C(/C=C/c1c(O)ccc2ccccc12)c1ccccc1`, the GI50 in [1] is > 100 µM (inactive); in assay [2], > 100 µM (inactive); in assay [3], 15.7 µM (inactive); in [4], > 100 µM (inactive); in [5] it was > 100 µM (inactive); in assay [6] it was > 100 µM (inactive). In addition, the GI50 in assay [7] is 95.7 µM (inactive); in assay [8] it was > 100 µM (inactive); in [9] it was > 100 µM (inactive); in assay [10], > 100 µM (inactive); in assay [11], > 100 µM (inactive); in [12], > 100 µM (inactive). Besides, the GI50 was 22.5 µM (inactive) in assay [13] and > 100 µM (inactive) in assay [14].

In the case of `CSC1=C(C(=O)N(COCC[Si](C)(C)C)c2ccccc2Br)CCC(C(C)(C)C)C1` (configuration not stated), the GI50 in assay [1] is 28.1 µM (inactive); in assay [3] it was 15 µM (inactive); in [4] it was 13.1 µM (inactive); in assay [5], 14.4 µM (inactive); in [15], 17.9 µM (inactive); in [16], 10.6 µM (inactive). The GI50 in [6] is 18.1 µM (inactive); in assay [7], 13.8 µM (inactive); in assay [19], 6.81 µM (inactive); in [8], 14.2 µM (inactive); in assay [17] it was 22.4 µM (inactive); in [9] it was 10.5 µM (inactive). For the same compound, the GI50 in assay [10] was 10.7 µM (inactive); in assay [18], 13.7 µM (inactive); in [11], 14 µM (inactive); in assay [12], 12.4 µM (inactive); in assay [13], 13.8 µM (inactive); in assay [14], 13.4 µM (inactive).

`O=C1c2ccc(O)cc2C(=O)c2ccc(O)cc21`: the GI50 was 38.5 µM (inactive) in assay [1]; 40.9 µM (inactive) in assay [2]; > 100 µM (inactive) in [3]; 58.9 µM (inactive) in assay [4]; > 100 µM (inactive) in assay [5]; 30.6 µM (inactive) in [6]. Moreover, the GI50 in [7] is 59.2 µM (inactive); in [8], 88.7 µM (inactive); in assay [9], > 100 µM (inactive); in assay [10] it was 78.5 µM (inactive); in assay [11] it was 45.7 µM (inactive); in [12], > 100 µM (inactive). For the same compound, the values for the GI50 in assay [13] and in assay [14] were 92.5 µM (inactive) and 46.3 µM (inactive), respectively.

As for `COc1ccc(C(=O)N2c3ccccc3N(C)n3cccc3C2CC(=O)O)cc1` (configuration not stated), the GI50 in [1], in assay [2], in [3], in assay [4], in assay [5] and in assay [6] was > 100 µM (inactive) each time. The GI50 in [7], in assay [8], in [9], in [10], in assay [11] and in assay [12] was > 100 µM (inactive) in each case. In addition, the GI50 in assay [13] and in assay [14] was > 100 µM (inactive) each time.

Regarding `O=C(NCCCN1CCN(CCCNC(=O)c2cccc3ccccc23)CC1)c1cccc2ccccc12`, the GI50 in [1] was > 100 µM (inactive); in assay [2], 54.7 µM (inactive); in assay [3], 41.2 µM (inactive); in [4], > 100 µM (inactive); in [5], > 100 µM (inactive); in assay [6] it was 30.8 µM (inactive). In addition, the GI50 in assay [7] is 57.8 µM (inactive); in assay [8] it was > 100 µM (inactive); in [9], > 100 µM (inactive); in assay [10], 79.3 µM (inactive); in assay [11] it was > 100 µM (inactive); in assay [12], > 100 µM (inactive). In addition, the GI50 in assay [13] is > 100 µM (inactive); in assay [14], 35.1 µM (inactive).

On to `Cc1cc2nc3c(C#N)c4c(c(Cl)n3c2cc1C)CCC4`, for which the GI50 in assay [1] was > 100 µM (inactive); in [2], 25.3 µM (inactive); in assay [5] it was 25.1 µM (inactive); in assay [15], 19.3 µM (inactive); in assay [6], > 100 µM (inactive); in [7], 24.1 µM (inactive). Further, the GI50 in assay [19] was 40.7 µM (inactive); in [8], 38.5 µM (inactive); in assay [9], 43 µM (inactive); in assay [10], 21.3 µM (inactive); in assay [18], 18.3 µM (inactive); in assay [12] it was 65.8 µM (inactive). Besides, the GI50 in [13] is 19.6 µM (inactive).

As to `O=C(O)CCC(=O)N1C/C(=C\c2ccccc2)C(=O)/C(=C/c2ccccc2)C1`, the GI50 in assay [1] is 13.9 µM (inactive); in assay [2], 1.82 µM (inactive); in [3], 2.23 µM (inactive); in assay [4], 2.32 µM (inactive); in assay [5], 15 µM (inactive); in assay [6] it was 16.8 µM (inactive). In addition, the GI50 in assay [7] is 3.64 µM (inactive); in assay [8], 1.82 µM (inactive); in assay [9] it was 2.3 µM (inactive); in assay [10], 2.41 µM (inactive); in [11] it was 1.82 µM (inactive); in assay [12], 3.47 µM (inactive). Further, the GI50 in assay [13] is 1.58 µM (inactive); in assay [14], 2.17 µM (inactive).
